Measured values from publication PMC11449324, “Functional comparison of human and murine equilibrative nucleobase transporter 1” (PLOS ONE, 2024).

How the values were obtained:
[1] = tested on: HEK293-EV cells; experiment: MTT cell viability assay, HEK293-EV; assay type: cell-based, human; conditions: 48 h; for EC50: Homo sapiens, first-phase EC50 where biphasic
Method: (§1) Transfected-HEK293, MOLT-4, and L1210 cells were seeded into 24-well plates at a density of 1.1x10^5 cells per well in complete culture medium. […] Medium containing no cells was used to determine spontaneous MTT reduction (background). In transfected-HEK293 cells, media was removed via a vacuum-powered aspirator and replaced with 150 μL of Dulbecco’s phosphate buffered saline (DPBS—137 mM NaCl, 2.7 mM KCl, 6.3 mM Na2HPO4, 1.5 mM KH2PO4, 0.5 mM MgCl2, 0.9 mM CaCl2, pH 7.4) containing MTT (1 mg/mL) for 90 minutes at 37°C. In MOLT-4 and L1210, cell suspension was transferred to 1.5 mL microcentrifuge tubes and centrifuged for 10 minutes at 3000 rcf. Following centrifugation, media was removed via gentle pipetting and replaced with 150 μL of DPBS containing MTT (1 mg/mL) for 90 minutes at 37°C. Microcentrifuge tubes were centrifuged again for 15 minutes at 23,500 rcf, and then DPBS containing MTT was removed via a vacuum-powered aspirator. The resultant formazan crystals were solubilized in 500 μL of DMSO and transferred to a 96-well plate in 200 μL duplicates. Absorbance was measured at 570 nm, in a SpectraMax® i3x Multi-Mode Detection Platform (Molecular Devices, San Jose, CA). After background subtraction, % cell viability was calculated as the ratio of absorbance in the presence of test compound to that measured with vehicle alone (X 100).

[2] = tested on: HEK293-hSLC43A3 cells; experiment: MTT cell viability assay, HEK293-hSLC43A3; assay type: cell-based, human; conditions: for EC50: Homo sapiens, first-phase EC50 where biphasic
Method: as §1

[3] = tested on: HEK293-mslc43a3 cells; experiment: MTT cell viability assay, HEK293-mslc43a3; assay type: cell-based, human; conditions: for EC50: Homo sapiens, first-phase EC50 where biphasic
Method: as §1

[4] = tested on: ENBT1; conditions: previous findings ref 14; cited from earlier work
[5] = substrate: Sc1ncnc2nc[nH]c12; experiment: cells, lysate or membranes; conditions: pH 7.4
[6] = substrate: Nc1ncnc2nc[nH]c12; experiment: Radiolabelled substrate uptake (oil-stop, 2 s) in HEK293-mslc43a3 cells; assay type: cell-based, mouse; conditions: other: HEK293-mslc43a3 minus HEK293-EV, 2 seconds, room temperature, 10 μM dipyridamole; pH 7.4
Method: (§2) Harvested cells were suspended in nominally sodium-free N-methyl-D-glucamine (NMG) buffer (140 mM NMG, 5 mM KCl, 4.2 mM KHCO3, 0.36 mM K2HPO4, 0.44 mM KH2PO4, 0.5 mM MgCl2, 1.3 mM CaCl2, 10 mM HEPES, pH 7.4), to minimize potential contribution of sodium-dependent concentrative nucleoside transporter-mediated uptake. Additionally, cells were incubated for 15 minutes at room temperature with 10 μM dipyridamole (DY), an equilibrative nucleoside transporter (ENT) inhibitor, to block equilibrative nucleoside transporter–mediated uptake. The substrate uptake assay was initiated by adding 250 μL cell suspension to 250 μL [^3H] labeled substrate, layered over 21:4 silicone:mineral oil (200 μL) in 1.5 mL microcentrifuge tubes (conducted at room temperature). The uptake reaction was terminated after 2 seconds by centrifugation of the cells through the oil layer at ~10,000 g. […] The resulting cell pellet was digested in 250 μL 1 M NaOH overnight (~16 hours), with 220 μL aliquots of digested cells assessed for radioactive content using standard liquid scintillation counting techniques in a Beckman Coulter LS6500 scintillation system (Brea, CA).
(§3) In transfected-HEK293 cell lines, total uptake was defined as uptake of radiolabeled substrate in cells overexpressing recombinant hENBT1 or mENBT1. […] ENBT1-mediated uptake was calculated as total uptake minus the non-mediated uptake. […]

[7] = substrate: Nc1ncnc2nc[nH]c12; experiment: Radiolabelled substrate uptake (oil-stop, 2 s) in HEK293-hSLC43A3 cells; assay type: cell-based, human; conditions: other: HEK293-hSLC43A3 minus HEK293-EV, 2 seconds, room temperature, 10 μM dipyridamole; pH 7.4
Method: as §2, §3

[8] = other: HEK293-mslc43a3 minus HEK293-EV, 2 seconds, room temperature, 10 μM dipyridamole
[9] = other: HEK293-hSLC43A3 minus HEK293-EV, 2 seconds, room temperature, 10 μM dipyridamole

Nc1nc2nc[nH]c2c(=S)[nH]1 [6-TG, 6-thioguanine]
EC50 [1]: 16 ± 4.3 µM
shift in EC50 (increased sensitivity) relative to HEK293-EV cells ([2]; HEK293-hSLC43A3 vs HEK293-EV): 5 fold
EC50 ([2]; HEK293-hSLC43A3, 48 h, MTT): 3.4 ± 0.9 µM
shift in EC50 (increased sensitivity) relative to HEK293-EV cells ([3]; HEK293-mslc43a3 vs HEK293-EV): 5 fold
EC50 ([3]; HEK293-mslc43a3, 48 h, MTT): 3.4 ± 1.1 µM
effect on 6-MP uptake by ENBT1 [4]: competitively inhibits

O=c1[nH]c(=S)c2[nH]c(=O)[nH]c2[nH]1 [6-TU, 6-Thiouric acid]
effect on cell viability [1]: minimal effect
effect on cell viability ([2]; HEK293-hSLC43A3, 48 h, MTT): minimal effect
effect on cell viability ([3]; HEK293-mslc43a3, 48 h, MTT): minimal effect

CSc1ncnc2nc[nH]c12 [6-MeMP, 6-Methylmercaptopurine]
EC50 [1]: 45 ± 7 µM
EC50 ([2]; HEK293-hSLC43A3, 48 h, MTT): 79 ± 2 µM
EC50 ([3]; HEK293-mslc43a3, 48 h, MTT): 42 ± 6 µM
effect on 6-MP uptake by ENBT1 [4]: inhibited

B1: mENBT1 (slc43a3-encoded mouse ENBT1) (Mus musculus) (protein)
chain: MASKGLPLYLATLLTGLLECIGFAGVLFGWTSLLFVFKAENYFSEPCEQDCLLQSNVTGPSDLKAQDEKFSLIFTLASFMNNFMTFPTGYIFDRFKTTVARLIAIFFYTCATIIIAFTSANTAMLLFLAMPMLAVGGILFLITNLQIGNLFGKHRSTIITLYNGAFDSSSAVFLVIKLLYEQGISLRSSFIFMSVCSVWHIARTFLLMPKGHIPYPLPPNYSYGLCSRFGASKKENKAAEHETKELRSKECLPPKEENSGPEQQQQQEQQQQQQQQQEQHEQHSFRRCALSRRFILHVVWLSIIQLWHYLFIGTLNSLLTKLSGGDKVEVSAYTNAFAITQFFGVLCAPWNGLLMDRLKQKYQKAAKRTGSSSEAVALCSMVPSLALTSLLSLGFALCASIPVMQLQYATFILQVVSRSFLYGCNAAFLTLAFPSEHFGKLFGLVMALSAIVSLLQFPLFKVSPESNAVYVSMGLAIFLTLVHPFLVYRECRAEKTKSSVDA
notes: Oligonucleotides corresponding to the coding region of SLC43A3 (NM_001278201) or slc43a3 (NM_021398); expressed in transfected cells; HEK293-mslc43a3
Km [5, 8]: 253 ± 39 µM
Vmax [5, 8]: 144 ± 12 pmol/µL/s
Km [6]: 86 ± 22 µM
Vmax [6]: 62 ± 6 pmol/µL/s

B2: endogenous ENBT1 expressed in L1210 cells (Mus musculus) (protein)
chain: B1 chain
Km ([5]; other: L1210, 2 seconds): 272 ± 91 µM

B3: hENBT1 (SLC43A3-encoded human ENBT1) (Homo sapiens) (protein)
chain: MAGQGLPLHVATLLTGLLECLGFAGVLFGWPSLVFVFKNEDYFKDLCGPDAGPIGNATGQADCKAQDERFSLIFTLGSFMNNFMTFPTGYIFDRFKTTVARLIAIFFYTTATLIIAFTSAGSAVLLFLAMPMLTIGGILFLITNLQIGNLFGQHRSTIITLYNGAFDSSSAVFLIIKLLYEKGISLRASFIFISVCSTWHVARTFLLMPRGHIPYPLPPNYSYGLCPGNGTTKEEKETAEHENRELQSKEFLSAKEETPGAGQKQELRSFWSYAFSRRFAWHLVWLSVIQLWHYLFIGTLNSLLTNMAGGDMARVSTYTNAFAFTQFGVLCAPWNGLLMDRLKQKYQKEARKTGSSTLAVALCSTVPSLALTSLLCLGFALCASVPILPLQYLTFILQVISRSFLYGSNAAFLTLAFPSEHFGKLFGLVMALSAVVSLLQFPIFTLIKGSLQNDPFYVNVMFMLAILLTFFHPFLVYRECRTWKESPSAIA
notes: Oligonucleotides corresponding to the coding region of SLC43A3 (NM_001278201) or slc43a3 (NM_021398); expressed in transfected cells; HEK293-hSLC43A3
Km [5, 9]: 269 ± 67 µM
Vmax [5, 9]: 121 ± 16 pmol/µL/s
Km [7]: 93 ± 24 µM
Vmax [7]: 56 ± 6 pmol/µL/s

B4: endogenous ENBT1 expressed in MOLT-4 cells (Homo sapiens) (protein)
chain: B3 chain
Km ([5]; other: MOLT-4, 2 seconds): 115 ± 68 µM
